According to patent US4138554A, “7-[D-α-(4-Hydroxy-1,5-naphthyridine-3-carboxamido)-α-phenyl (and p-hydroxyphenyl)acetamido]-3-carbamoyloxymethyl-3-cephem-4-carboxylic acids” (priority 1977, dated 1979):
Read-outs that look alike come from different tables or passages of the source.

Columns and labels:
[1] = system: Pseudomonas aeruginosa; test: MIC by agar dilution against 61 strains of Pseudomonas aeruginosa, secondary evaluation; format: cell-based; details: Pseudomonas aeruginosa
Experimental: Minimum inhibitory concentrations (MIC) of BB-S520 were determined by serial two-fold agar dilution method using Steers' apparatus on Meuller-Hinton agar plate against 31 test organisms for the primary screening and also against 61 strains of Pseudomonas aeruginosa for the secondary evaluation. The results are shown in Table 1 and Table 2 along with those of BB-S514 and sulbenicillin.
Minimum inhibitory concentrations (MIC) of cephalosporins in the present study were determined by serial two-fold agar dilution method using Steers' apparatus on Mueller-Hinton agar plate against 31 test organisms for the primary screening and also against 61 strains of Pseudomonas aeruginosa for the secondary evaluation.

[2] = system: S. aureus Smith; test: Median curative dose in mice, infection with S. aureus Smith; format: in vivo; details: Staphylococcus aureus, sc; subcutaneous injection in mice, S. aureus Smith, Table 4; read-out: Median Curative Dose (PD50)
Excerpt: (§1) Median Curative Dose in Mgm./Kg.
(§2) Upon Subcutaneous Injection in Mice

[3] = system: Ps. aeruginosa A9843; test: Median curative dose in mice, infection with Ps. aeruginosa; format: in vivo; details: for ED50: Pseudomonas aeruginosa, A9843, sc
Excerpt: as §1, §2

CC1(C)S[C@@H]2[C@H](NC(=O)C(c3ccccc3)S(=O)(=O)O)C(=O)N2[C@H]1C(=O)O (stereo partly drawn) [Sulbenicillin, sulbenicillin]
140 mg/kg: ED50 ([3]; mice, P. aerug. A9843 infection, Table 5, read-out: PD50)
3.1 mg/L: MIC ([1]; BBRI Pa-No. 16, No. 130, Table 7, read-out: MIC) | MIC ([1]; BBRI Pa-No. 18, H8 D121, Table 7, read-out: MIC) | MIC ([1]; BBRI Pa-No. 31, Table 7, read-out: MIC)
100 mg/L: MIC ([1]; BBRI Pa-No. 24, Table 2, read-out: MIC) | MIC ([1]; BBRI Pa-No. 33, Table 2, read-out: MIC) | MIC ([1]; BBRI Pa-No. 35, Table 2, read-out: MIC) | MIC ([1]; BBRI Pa-No. 38, Table 7, read-out: MIC) | MIC ([1]; BBRI Pa-No. 69, Table 7, read-out: MIC)
0.8 mg/L: MIC ([1]; BBRI Pa-No. 36, Table 7, read-out: MIC)
50 mg/L: MIC ([1]; BBRI Pa-No. 23, Table 2, read-out: MIC) | MIC ([1]; BBRI Pa-No. 28, CPH1C527/72, Table 7, read-out: MIC) | MIC ([1]; BBRI Pa-No. 28, CPH10527/72, Table 2, read-out: MIC) | MIC ([1]; BBRI Pa-No. 35, Table 7, read-out: MIC) | MIC ([1]; BBRI Pa-No. 37, Table 2, read-out: MIC) | MIC ([1]; BBRI Pa-No. 38, Table 2, read-out: MIC) | MIC ([1]; BBRI Pa-No. 43, Table 2, read-out: MIC) | MIC ([1]; BBRI Pa-No. 44 (unnamed strain), Table 7, read-out: MIC) | MIC ([1]; BBRI Pa-No. 44, Table 2, read-out: MIC) | MIC ([1]; BBRI Pa-No. 52, Table 7, read-out: MIC) | MIC ([1]; BBRI Pa-No. 54, Table 2, read-out: MIC) | MIC ([1]; BBRI Pa-No. 58, Table 2, read-out: MIC) | MIC ([1]; BBRI Pa-No. 58, Table 7, read-out: MIC) | MIC ([1]; BBRI Pa-No. 59, Table 2, read-out: MIC) | MIC ([1]; BBRI Pa-No. 61, Table 2, read-out: MIC) | MIC ([1]; BBRI Pa-No. 67, Table 2, read-out: MIC) | MIC ([1]; BBRI Pa-No. 68, Table 2, read-out: MIC) | MIC ([1]; BBRI Pa-No. 68, Table 7, read-out: MIC) | MIC ([1]; BBRI Pa-No. 69, Table 2, read-out: MIC) | MIC ([1]; BBRI Pa-No. 70, K-Ps102(CR-102), Table 7, read-out: MIC) | MIC ([1]; GN315, BBRI Pa-No. 27, GN315, Table 2, read-out: MIC) | MIC ([1]; GN4925, BBRI Pa-No. 44, GN4925, Table 7, read-out: MIC) | MIC ([1]; GN4925, BBRI Pa-No. 45, GN4925, Table 2, read-out: MIC)
> 100 mg/L: MIC ([1]; BBRI Pa-No. 24, Table 7, read-out: MIC) | MIC ([1]; BBRI Pa-No. 42, Table 2, read-out: MIC) | MIC ([1]; BBRI Pa-No. 42, Table 7, read-out: MIC) | MIC ([1]; BBRI Pa-No. 62, Table 2, read-out: MIC) | MIC ([1]; BBRI Pa-No. 62, Table 7, read-out: MIC)
1.6 mg/L: MIC ([1]; BBRI Pa-No. 36, Table 2, read-out: MIC)
2.4 mg/kg: ED50 [2]
85 mg/kg: ED50 ([3]; subcutaneous injection in mice, Ps. aeruginosa, Table 4, read-out: Median Curative Dose (PD50))
130 mg/kg: PD50 ([3]; mice, P. aerug. A9843 infection, Table 5)
6.3 mg/L: MIC ([1]; BBRI Pa-No. 19, Table 7, read-out: MIC) | MIC ([1]; BBRI Pa-No. 25, Table 7, read-out: MIC)
25 mg/L: MIC ([1]; BBRI Pa-No. 17, H6 D114, Table 7, read-out: MIC) | MIC ([1]; BBRI Pa-No. 20, Table 2, read-out: MIC) | MIC ([1]; BBRI Pa-No. 20, Table 7, read-out: MIC) | MIC ([1]; BBRI Pa-No. 21, Table 2, read-out: MIC) | MIC ([1]; BBRI Pa-No. 21, Table 7, read-out: MIC) | MIC ([1]; BBRI Pa-No. 23, Table 7, read-out: MIC) | MIC ([1]; BBRI Pa-No. 29, D122, Table 2, read-out: MIC) | MIC ([1]; BBRI Pa-No. 29, D122, Table 7, read-out: MIC) | MIC ([1]; BBRI Pa-No. 30, Table 2, read-out: MIC) | MIC ([1]; BBRI Pa-No. 30, Table 7, read-out: MIC) | MIC ([1]; BBRI Pa-No. 32, Table 2, read-out: MIC) | MIC ([1]; BBRI Pa-No. 32, Table 7, read-out: MIC) | MIC ([1]; BBRI Pa-No. 33, Table 7, read-out: MIC) | MIC ([1]; BBRI Pa-No. 34, Table 2, read-out: MIC) | MIC ([1]; BBRI Pa-No. 37, Table 7, read-out: MIC) | MIC ([1]; BBRI Pa-No. 39, Table 2, read-out: MIC) | MIC ([1]; BBRI Pa-No. 39, Table 7, read-out: MIC) | MIC ([1]; BBRI Pa-No. 41, Table 2, read-out: MIC) | MIC ([1]; BBRI Pa-No. 41, Table 7, read-out: MIC) | MIC ([1]; BBRI Pa-No. 43, Table 7, read-out: MIC) | MIC ([1]; BBRI Pa-No. 51, Table 2, read-out: MIC) | MIC ([1]; BBRI Pa-No. 51, Table 7, read-out: MIC) | MIC ([1]; BBRI Pa-No. 52, Table 2, read-out: MIC) | MIC ([1]; BBRI Pa-No. 53, Table 2, read-out: MIC) | MIC ([1]; BBRI Pa-No. 53, Table 7, read-out: MIC) | MIC ([1]; BBRI Pa-No. 54, Table 7, read-out: MIC) | MIC ([1]; BBRI Pa-No. 55, Table 2, read-out: MIC) | MIC ([1]; BBRI Pa-No. 55, Table 7, read-out: MIC) | MIC ([1]; BBRI Pa-No. 56, Table 2, read-out: MIC) | MIC ([1]; BBRI Pa-No. 56, Table 7, read-out: MIC) | MIC ([1]; BBRI Pa-No. 57, Table 2, read-out: MIC) | MIC ([1]; BBRI Pa-No. 57, Table 7, read-out: MIC) | MIC ([1]; BBRI Pa-No. 59, Table 7, read-out: MIC) | MIC ([1]; BBRI Pa-No. 61, Table 7, read-out: MIC) | MIC ([1]; BBRI Pa-No. 64, Table 2, read-out: MIC) | MIC ([1]; BBRI Pa-No. 64, Table 7, read-out: MIC) | MIC ([1]; BBRI Pa-No. 65, Table 2, read-out: MIC) | MIC ([1]; BBRI Pa-No. 65, Table 7, read-out: MIC) | MIC ([1]; BBRI Pa-No. 66, Table 2, read-out: MIC) | MIC ([1]; BBRI Pa-No. 66, Table 7, read-out: MIC) | MIC ([1]; BBRI Pa-No. 67, Table 7, read-out: MIC) | MIC ([1]; BBRI Pa-No. 70, K-Ps102 (CR-102), Table 2, read-out: MIC)
12.5 mg/L: MIC ([1]; GN315)
